This is an account of results in PMC9709406 (Frontiers in Pharmacology, 2022).

Test [1] deals with H1650 cells. Briefly: MTT assay for cell proliferation and cytotoxicity, H1650. Format: cell-based. The note with it: Homo sapiens, NCI-H1650, 48 h, H1650, n = 5. In short, it runs like this:
(§1)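 Absorbance at 490 nm after 1–4 h MTT incubation gave viability of cells exposed 48 h to test compound (0–50 μM; vehicle 0.1% DMSO). Seeding was 2,200–2,500 cells/well, one day before dosing, in RPMI-1640/10% FBS at 37 °C, 5% CO2.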
(Formazan colour is commonly taken as a measure of viable cells.)

In test [2] the test system is H1975 cells. Briefly: MTT assay for cell proliferation and cytotoxicity, H1975. The note with it: MTT, 48 h, H1975, n = 5, read-out: IC50 48 h H1975. The test is classed as cell-based, human. In short, it runs like this: as §1
For test [3], the system named is H1650TR cells. Briefly: MTT assay, taxol-resistant H1650TR. The test is classed as cell-based. The note with it: Homo sapiens, NCI-H1650, 48 h, value in parentheses in H1650 column. The source says: (§2) The human cancer cells (H1650, H1975, KYSE70, KYSE410 and KYSE450) were purchased from the Type Culture Collection of the Chinese Academy of Sciences (Shanghai, China). The human immortalized normal esophageal epithelial cell line SHEE was donated by Dr. Enmin Li from the Laboratory of Tumor Pathology (Shantou University Medical College, Shantou, Guangdong, China). Drug-resistant cells (H1650TR, H1975OR, KYSE70TR, KYSE410TR and KYSE450TR) were induced by China-US (Henan) Hormel Cancer Institute. The cellswere cultured in RPMI-1640 complete growth medium containing 100 U/mL penicillin-streptomycin and 10% FBS. Based on the above medium formula, 100 nm/L paclitaxel was added in taxol-resistant cells, 100 nm/L gefitinib was added in gefitinib-resistant cells. The cells were incubated at 37 °C in an atmosphere containing 5% of CO2. The compounds were dissolved in DMSO to make a 50 mM stock solution and were diluted to the concentration of working solutions with complete growth medium before administration.
Cells were seeded in 96-well plates with 2,200–2,500 cells/well in100 μL. One day after seeding, test compounds with the concentration between 0 and 50 μM were added with 0.1% DMSO as control. Five multiple wells for each concentration. After 48 h, MTT was added and incubated in the plate for 1–4 h in the incubator. The absorbance at 490 nm was measured using a microplate reader (Thermo).

The subject of test [4] is H1975OR cells. Briefly: MTT assay, osimertinib-resistant H1975OR. The conditions noted are these: Homo sapiens, NCI-H1975, 48 h, osimertinib-resistant H1975OR, value in parentheses in H1975 column, read-out: IC50 48 h H1975OR (data in parentheses) (converted). Format: cell-based.
Text: as §2
(§3) Cells were seeded in 96-well plates with 2,200–2,500 cells/well in100 μL. One day after seeding, test compounds with the concentration between 0 and 50 μM were added with 0.1% DMSO as control. Five multiple wells for each concentration. […] The absorbance at 490 nm was measured using a microplate reader (Thermo).

In test [5] the test system is SHEE cells. The test can be described thus: MTT assay, normal esophageal epithelial cell line SHEE. The test is classed as cell-based. The note with it: Homo sapiens, 48 h, n = 5. The procedure, abridged: as §1
Test [6] deals with KYSE70 cells. Briefly: MTT assay, KYSE70. The test is classed as cell-based, human. The conditions noted are these: Homo sapiens, KYSE-70; MTT, 48 h, KYSE70, n = 5. In short, it runs like this:
as §1

Test [7] relates to KYSE410 cells. The test can be described thus: MTT assay, KYSE410. The test is classed as cell-based, human. The note with it: Homo sapiens, KYSE-410; MTT, 48 h, KYSE410, n = 5; read-out: IC50 48 h KYSE410. In short, it runs like this: as §1
Test [8] deals with KYSE450 cells. Briefly: MTT assay, KYSE450. Format: cell-based, human. The conditions noted are these: Homo sapiens, KYSE-450; MTT, 48 h, KYSE450, n = 5; read-out: IC50 48 h KYSE450. The procedure, abridged: as §1
Test [9] relates to KYSE70TR cells. The test can be described thus: MTT assay, taxol-resistant KYSE70TR. The test is classed as cell-based, human. The conditions noted are these: Homo sapiens; MTT, 48 h, taxol-resistant KYSE70TR, value in parentheses; read-out: IC50 48 h KYSE70TR (data in parentheses) (converted).
Text: as §2, §3

In test [10] the test system is KYSE410TR cells. The test can be described thus: MTT assay, taxol-resistant KYSE410TR. Format: cell-based, human. The conditions noted are these: Homo sapiens; MTT, 48 h, taxol-resistant KYSE410TR, value in parentheses; read-out: IC50 48 h KYSE410TR (data in parentheses) (converted).
Text: as §2, §3

The test system of test [11] is KYSE450TR cells. Briefly: MTT assay, taxol-resistant KYSE450TR. The test is classed as cell-based, human. The conditions noted are these: Homo sapiens; MTT, 48 h, taxol-resistant KYSE450TR, value in parentheses; read-out: IC50 48 h KYSE450TR (data in parentheses) (converted).
Text: as §2, §3

The target in test [12] is T1, EGFR (Homo sapiens, UniProt P00533).
T1 construct: purchased Active MOTIF
T1 sequence (P00533 25-1210): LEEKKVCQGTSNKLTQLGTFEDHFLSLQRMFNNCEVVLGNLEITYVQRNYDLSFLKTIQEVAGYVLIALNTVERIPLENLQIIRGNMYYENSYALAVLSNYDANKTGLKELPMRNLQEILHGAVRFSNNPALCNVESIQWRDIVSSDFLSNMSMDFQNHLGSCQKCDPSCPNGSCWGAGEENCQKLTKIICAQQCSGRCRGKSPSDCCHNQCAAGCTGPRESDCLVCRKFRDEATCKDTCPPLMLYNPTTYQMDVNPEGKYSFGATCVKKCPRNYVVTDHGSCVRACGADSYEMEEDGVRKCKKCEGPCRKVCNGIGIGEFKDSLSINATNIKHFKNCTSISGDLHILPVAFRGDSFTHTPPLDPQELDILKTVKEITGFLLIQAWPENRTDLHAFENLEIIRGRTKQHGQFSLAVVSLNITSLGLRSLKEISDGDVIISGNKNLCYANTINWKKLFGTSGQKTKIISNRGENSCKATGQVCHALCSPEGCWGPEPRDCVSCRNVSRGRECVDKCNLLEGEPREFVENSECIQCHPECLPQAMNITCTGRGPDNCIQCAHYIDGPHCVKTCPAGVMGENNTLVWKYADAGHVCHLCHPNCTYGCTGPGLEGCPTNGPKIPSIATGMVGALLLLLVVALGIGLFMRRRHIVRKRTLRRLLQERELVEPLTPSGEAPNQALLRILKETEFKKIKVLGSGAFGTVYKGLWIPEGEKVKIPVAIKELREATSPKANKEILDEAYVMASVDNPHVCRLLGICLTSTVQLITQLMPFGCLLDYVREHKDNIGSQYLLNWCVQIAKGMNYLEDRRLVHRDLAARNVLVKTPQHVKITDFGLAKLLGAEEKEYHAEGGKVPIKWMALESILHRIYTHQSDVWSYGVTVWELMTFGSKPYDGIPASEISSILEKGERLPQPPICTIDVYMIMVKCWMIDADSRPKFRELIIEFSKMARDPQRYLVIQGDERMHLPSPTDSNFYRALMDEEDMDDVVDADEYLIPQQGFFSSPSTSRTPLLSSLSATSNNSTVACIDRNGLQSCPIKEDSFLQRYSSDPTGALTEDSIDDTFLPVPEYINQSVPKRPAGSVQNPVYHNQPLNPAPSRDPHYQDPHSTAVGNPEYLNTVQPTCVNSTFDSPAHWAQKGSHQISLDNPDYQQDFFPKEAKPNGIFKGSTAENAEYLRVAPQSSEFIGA
Briefly: EGFR kinase assay (ELISA). Format: biochemical. The conditions noted are these: 25°C. As to the method:
Kinase inhibitory activities of the compounds were evaluated using the Protein Tyrosine Kinase Assay Kit (SignalChem (British Columbia, Canada)). The kinase enzyme of EGFR was purchased from Active MOTIF. The ELISA experiments were carried out according the instructions of the kit. Active kinases were incubated with indicated compounds in 1 × reaction buffer containing 20 μM substrate at 25°C for 1 h and 2 h, respectively. The absorbance was read with a multimode plate reader (PerkinElmer, United States) at 450 nm.
(In general: In an ELISA, binding on a coated surface is turned into a signal by an enzyme label.)

In test [13] the test system is KYSE450 cells. Briefly: Annexin V/PI flow cytometry for apoptosis, KYSE450. Format: cell-based, human. The conditions noted are these: 48 h. Here is the method: (§4) Cell-apoptosis analysis was carried out by flow cytometry using the Annexin V/PI apoptosis methods. […] Cells were harvested and incubated with 250 μL of 1 × Annexin V binding buffer containing 5 μL PI and 5 μL FITC Annexin V (final concentration 1.8 μg/ml, Biolegend (cat: 640945) for 15 min at room temperature in dark. 200 µL of 1 × binding buffer was added for flow cytometry analysis (BD FACSCalibur™ Flow Cytometer).
In general terms: Flow cytometry measures light scatter and fluorescence of single cells or particles in a stream.

Test [14] deals with KYSE450TR cells. Briefly: Annexin V/PI flow cytometry for apoptosis, KYSE450TR. Format: cell-based, human. The conditions noted are these: 48 h. Here is the method: as §4
The test system of test [15] is KYSE450 cells. Briefly: Cell cycle analysis by flow cytometry, KYSE450. The note with it: KYSE450, 24 h; icotinib at 2 μM, 3l at 8 μM. The test is classed as cell-based, human. As to the method: (§5) KYSE450/KYSE450TR cells were plated in 6-well plates with a density of 1×10^5 cells/well and cultured overnight. […] Trypsinization treatment and the cells were collected by centrifugation. The cell pellet was re-suspended in 70% ethanol at −20°C for at least 3 h. The cells were washed with PBS and were re-suspended in 250 μL of 0.6% tricine with Renease A for 1 h, then stained in PI (final concentration 1.8 μg/ml, Biolegend cat: 640945) for 15 min in dark. Cells were retransferred to the BD FACSCalibur™ Flow Cytometer. All analyses were performed with FlowJo software v105.3.6.

The test system of test [16] is KYSE450TR cells. The test can be described thus: Cell cycle analysis by flow cytometry, KYSE450TR. The conditions noted are these: 24 h, icotinib at 8 μM, 3l at 8 μM. Format: cell-based, human. As to the method:
as §5

For test [17], the target named is T2, EGFR wild protein (H672-A1210) (Homo sapiens, UniProt P00533).
T2 construct: purchased Active MOTIF 31165
T2 sequence (P00533 672-1210): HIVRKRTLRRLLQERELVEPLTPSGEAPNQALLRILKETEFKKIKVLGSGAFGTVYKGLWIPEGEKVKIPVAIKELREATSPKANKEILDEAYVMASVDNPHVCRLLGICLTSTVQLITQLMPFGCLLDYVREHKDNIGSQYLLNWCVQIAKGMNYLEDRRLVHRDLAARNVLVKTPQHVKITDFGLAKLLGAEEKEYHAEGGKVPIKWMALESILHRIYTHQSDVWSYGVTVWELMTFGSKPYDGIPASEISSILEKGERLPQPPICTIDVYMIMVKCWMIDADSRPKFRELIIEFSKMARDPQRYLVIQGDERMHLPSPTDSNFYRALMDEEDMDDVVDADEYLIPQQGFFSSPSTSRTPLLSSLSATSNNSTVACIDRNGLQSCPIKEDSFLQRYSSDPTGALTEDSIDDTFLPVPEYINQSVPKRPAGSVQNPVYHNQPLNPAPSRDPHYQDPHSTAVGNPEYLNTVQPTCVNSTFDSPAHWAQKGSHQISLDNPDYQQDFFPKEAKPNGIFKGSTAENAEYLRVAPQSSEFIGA
The test can be described thus: EGFR protein affinity determined with SPR. The test is classed as binding. The conditions noted are these: immobilized wild-type EGFR. Here is the method: Firstly, EGFR protein (protein concentration : 0.468 μg/μL, Active MOTIF, cat: 31165, lot: 28215004) was covalently immobilized onto a CM5 sensor chip at densities of 2000 response units. […] During the drug-protein interaction, the change of the refractive index was measured in real-time which would allow the plotting of the results of interaction as response units versus time. The interaction results were analyzed under a BIA evaluation 3.0 software.

Like-named read-outs stand apart in the source and are kept apart here.

Consider `C#Cc1cccc(Nc2ncnc3cc4c(cc23)OCCOCCOCCO4)c1` [icotinib, reference compound], for which the IC50 (as a rule, the midpoint of a concentration-inhibition curve) in test [1] was over 50 µM; in [2] (Homo sapiens, NCI-H1975, 48 h) it was over 50 µM; in test [2] it was 48.3 ± 2.13 µM; in test [3], over 50 µM; in test [4] it was over 50 µM; in test [5] it was 19.2 ± 1.29 µM. The IC50 in test [6] was over 50 µM; in test [7] it was over 50 µM; in [8], 30.4 ± 1.96 µM; in [9], over 50 µM; in [10], over 50 µM; in test [11], over 50 µM. The IC50 in test [12] (incubation 1 h, read-out: IC50 EGFR 1 h) came out at 0.00138 µM; in [12] (incubation 2 h, read-out: IC50 EGFR 2 h), 0.038 µM. The “proportion of apoptotic cells” value is listed as 7.84% in test [13] (KYSE450, 2 μM); 12.25% in test [13] (KYSE450, 4 μM); 8.51% in test [14] (5 μM); 10.43% in test [14] (10 μM). Besides, the “cell cycle phase in which cells were arrested” value in test [15] and in [16] was “G1 phase” throughout. For the same molecule, the “Rmax(RU)” value in [17] turned out to be 15.74 RU. In addition, binding in [17] (25°C) was put at a Kd of 36.1 µM.
